Where two headings read alike, the source gives them in different places.
Key:
[1] = tested on: normal cells; conditions: background statement; cited from earlier work
[2] = tested on: colon cancer 26-L5 cell invasion; conditions: background statement; read-out: anti-colon cancer 26-L5 cell invasion activity IC50; cited from earlier work
[3] = tested on: colon cancer 26-L5 cell invasion; assay: recombinant basement membrane invasion experiment (Transwell/Matrigel); type: cell-based; conditions: for IC50 / IC50 (μg/mL): inhibition of colon cancer 26-L5 cell invasion
Experimental: Invasion and metastasis are basic characteristics of malignant tumors. During the tumor metastasis process, the tumor cell invasion into a basement membrane is an important link. A conventional recombinant basement membrane invasion experiment is adopted, a natural product Brartemicin is taken as positive control, and the inhibition action of trehalose derivatives against colon cancer 26-L5 cell invasion activity is determined.
Polycarbonate membrane 8 μm (Nucleopore, Pleasanton, Calif., USA); Transwell cell culture chamber (Costar 3422, Cambridge, Mass., USA); fibronectin (FN; Collaborative Research Inc., Bedford, Mass., USA); Matrigel (Collaborative Research Inc., Bedford, Mass., USA); RPMI1640 culture medium containing 1% of fetal calf serum (FCS) (Collaborative Research Inc., Bedford, Mass., USA); and hematoxylin-eosin (HE) staining kit (Collaborative Research Inc., Bedford, Mass, USA).
20 μg of fibronectin is smeared on the lower layer of a Transwell cell culture chamber, and 5 μg of Matrigel is smeared on the upper layer. Colon cancer 26-L5 cells in an exponential growth phase are suspended in an RPMI1640 culture medium containing 1% of fetal calf serum (FCS), which contains different concentrations of the trehalose derivatives or different concentrations of Brartemicin. […] The filter ester membranes contain the colored colon cancer 26-L5 cells after invasion. The ester membranes are placed on glass slides and are subjected to permeabilization by xylene, neutral resin is used for sealing, and the invasion cells are counted under a 400× microscope. The number of the penetrating cells of each membrane is counted from five different visual fields, namely upper, lower, left, right and middle visual fields, the average value is calculated, and three filter membranes are arranged in parallel in each group.
The natural product Brartemicin is taken as the positive control, the inhibition action of the trehalose derivatives against the colon cancer 26-L5 cell invasion activity is determined, and the activity experiment results are as shown in the following Table 1.

Row | SMILES | anti-colon cancer 26-L5 cell invasion activity (in words) [3] | IC50 (μg/mL) ([3]; incubation 6-8 hours) | also measured
1 | Cc1cc(O)cc(O)c1C(=O)OC[C@H]1O[C@H](O[C@H]2O[C@H](COC(=O)c3c(C)cc(O)cc3O)[C@@H](O)[C@H](O)[C@H]2O)[C@H](O)[C@@H](O)[C@@H]1O [Brartemicin] |  |  | toxicity against normal cells [1]: no toxicity against normal cells; IC50 [2]: 390 nM; IC50 ([3]; incubation 6-8 hours, read-out: IC50): 0.25 µg/mL
2 | COc1ccccc1C(=O)OCC1OC(OC2OC(COC(=O)c3ccccc3OC)C(O)C(O)C2O)C(O)C(O)C1O [Compound 3a, 6,6′-bis(2-methoxybenzoyl)-α,α-D-trehalose] | strong anti-colon cancer 26-L5 cell invasion activity |  | 
3 | Cc1ccccc1C(=O)OC[C@H]1O[C@H](O[C@H]2O[C@H](COC(=O)c3ccccc3C)[C@@H](O)[C@H](O)[C@H]2O)[C@H](O)[C@@H](O)[C@@H]1O [Compound 3b, 6,6″-bis(2-methylbenzoyl)-α,α-D-trehalose] |  | NA (NA: no activity when IC50 is 10 μg/mL) | 
4 | COc1ccc(C(=O)OC[C@H]2O[C@H](O[C@H]3O[C@H](COC(=O)c4ccc(OC)cc4)[C@@H](O)[C@H](O)[C@H]3O)[C@H](O)[C@@H](O)[C@@H]2O)cc1 [Compound 3c, 6,6′-bis(4-methoxybenzoyl)-α,α-D-trehalose] |  | NA (NA: no activity when IC50 is 10 μg/mL) | 
5 | O=C(OCC1OC(OC2OC(COC(=O)c3ccc(O)cc3)C(O)C(O)C2O)C(O)C(O)C1O)c1ccc(O)cc1 (stereo not drawn) [Compound 3d] | strong anti-colon cancer 26-L5 cell invasion activity |  | 
6 | COc1cccc(C(=O)OC[C@H]2O[C@H](O[C@H]3O[C@H](COC(=O)c4cccc(OC)c4OC)[C@@H](O)[C@H](O)[C@H]3O)[C@H](O)[C@@H](O)[C@@H]2O)c1OC [Compound 3e] | strong anti-colon cancer 26-L5 cell invasion activity |  | activity compared with the natural product Brartemicin [3]: stronger activity than the natural product Brartemicin; IC50 ([3]; incubation 6-8 hours): 0.10 µg/mL; IC50 ([3]; same value given in μM, read-out: IC50): 0.15 µM
7 | O=C(OCC1OC(OC2OC(COC(=O)c3c(F)cccc3F)C(O)C(O)C2O)C(O)C(O)C1O)c1c(F)cccc1F (stereo not drawn) [Compound 3f] | strong anti-colon cancer 26-L5 cell invasion activity |  | 
8 | Cc1cccc(N)c1C(=O)OC[C@H]1O[C@H](O[C@H]2O[C@H](COC(=O)c3c(C)cccc3N)[C@@H](O)[C@H](O)[C@H]2O)[C@H](O)[C@@H](O)[C@@H]1O [Compound 3g] | strong anti-colon cancer 26-L5 cell invasion activity |  | 
9 | COc1cc(C(=O)OCC2OC(OC3OC(COC(=O)c4ccc(F)c(OC)c4)C(O)C(O)C3O)C(O)C(O)C2O)ccc1F (stereo not drawn) [Compound 3h] |  | NA (NA: no activity when IC50 is 10 μg/mL) | 
10 | COc1cc(C(=O)OC[C@H]2O[C@H](O[C@H]3O[C@H](COC(=O)c4cc(OC)c(OC)c(OC)c4)[C@@H](O)[C@H](O)[C@H]3O)[C@H](O)[C@@H](O)[C@@H]2O)cc(OC)c1OC [Compound 3i] |  | NA (NA: no activity when IC50 is 10 μg/mL) | 

Reference: patent publication US8889651B2, “Trehalose derivatives, preparation method and uses thereof” (Joyochem Co., Ltd., priority 2010, dated 2014)
